According to ChEMBL document CHEMBL1151041, “Synthesis and antitumor evaluation of 2-oxycarbonylpaclitaxels (paclitaxel-2-carbonates)” (Bioorg Med Chem Lett, 1994):
The source made the active and inactive calls. The calls are words filed in the database; no cut-off is given here.

How the values were obtained:
[1] = system: HCT-116; assay: Compound was tested for its cytotoxicity against human colon cancer cell line HCT116; format: functional, cell-based
[2] = system: M109; assay: In vivo antitumor activity expressed as percent median survival time of treated mice to saline treated mice against murine lung carcinoma M109 at 90 mg/kg (ip) on days 5 and 8; format: functional, Mus musculus
[3] = organism: Rattus norvegicus; assay: Tested for tubulin polymerization assay in rat; Inactive; format: functional, organism-based
[4] = system: M109; assay: In vivo antitumor activity expressed as percent median survival time of treated mice to saline treated mice against murine lung carcinoma M109 at 90 mg/kg (ip) on days 1, 5 and 9; format: functional, Mus musculus
[5] = system: M109; assay: In vivo antitumor activity expressed as percent median survival time of treated mice to saline treated control against murine lung carcinoma M109 at 50 mg/kg (ip) on days 5 and 8 reference to 3c; format: functional, Mus musculus
[6] = system: M109; assay: In vivo antitumor activity expressed as percent median survival time of treated mice to saline treated mice against murine lung carcinoma M109 at 30 mg/kg (ip) on days 1, 5 and 9 reference to 3b; format: functional, Mus musculus
[7] = system: M109; assay: In vivo antitumor activity expressed as percent median survival time of treated mice to saline treated mice against murine lung carcinoma M109 at 30 mg/kg (ip) on days 1, 5 and 9 reference to 3d; format: functional, Mus musculus
[8] = system: M109; assay: In vivo antitumor activity expressed as percent median survival time of treated mice to saline treated mice against murine lung carcinoma M109 at 30 mg/kg (ip) on days 1, 5 and 9 reference to 3f; format: functional, Mus musculus
[9] = system: M109; assay: In vivo antitumor activity expressed as percent median survival time of treated mice to saline treated mice against murine lung carcinoma M109 at 50 mg/kg (ip) on days 1, 5 and 9 reference to 3e; format: functional, Mus musculus
[10] = system: M109; assay: In vivo antitumor activity expressed as percent median survival time of treated mice to saline treated mice against murine lung carcinoma M109 at 75 mg/kg (ip) on days 5 and 8 reference to 3a; format: functional, Mus musculus
[11] = system: M109; assay: In vivo antitumor activity expressed as percent median survival time of treated mice to saline treated mice against murine lung carcinoma M109 at 75 mg/kg (ip) on days 5 and 8 reference to 3g; format: functional, Mus musculus
[12] = system: M109; assay: In vivo antitumor activity expressed as percent median survival time of treated mice to saline treated mice against murine lung carcinoma M109 at 75 mg/kg (ip) on days 5 and 8 reference to 3h; format: functional, Mus musculus
[13] = system: M109; assay: In vivo antitumor activity expressed as percent median survival time of treated mice to saline treated mice against murine lung carcinoma M109 at 75 mg/kg (ip) on days 5 and 8 reference to 3i; format: functional, Mus musculus
[14] = organism: Rattus norvegicus; assay: Tested to promote microtubule assembly by tubulin polymerization assay in rat plasma at 37 degree C for 18 hr; Active; format: functional, organism-based

SMILES	IC50 [1]	T/C [2]	Activity [3]	T/C [4]	further results
C=C(C)OC(=O)O[C@@H](C(=O)O[C@H]1C[C@@]2(O)[C@@H](OC(=O)c3ccccc3)C3[C@]4(OC(C)=O)COC4C[C@H](O)[C@@]3(C)C(=O)[C@H](OC(C)=O)C(=C1C)C2(C)C)[C@@H](NC(=O)c1ccccc1)c1ccccc1 (stereo partly specified)	< 15 nM	235%	inactive		
C=COC(=O)O[C@@H](C(=O)O[C@H]1C[C@@]2(O)[C@@H](OC(=O)c3ccccc3)C3[C@]4(OC(C)=O)COC4C[C@H](O)[C@@]3(C)C(=O)[C@H](OC(C)=O)C(=C1C)C2(C)C)[C@@H](NC(=O)c1ccccc1)c1ccccc1 (stereo partly specified)	40 nM		inactive	>475%	
CC(=O)O[C@H]1C(=O)[C@@]2(C)C([C@H](OC(=O)c3ccccc3)[C@]3(O)C[C@H](OC(=O)[C@H](OC(=O)OCc4ccccc4)[C@@H](NC(=O)c4ccccc4)c4ccccc4)C(C)=C1C3(C)C)[C@]1(OC(C)=O)COC1C[C@@H]2O (stereo partly specified)	30 nM		inactive	310%	
CC(=O)O[C@H]1C(=O)[C@@]2(C)C([C@H](OC(=O)c3ccccc3)[C@]3(O)C[C@H](OC(=O)[C@H](OC(=O)OCCl)[C@@H](NC(=O)c4ccccc4)c4ccccc4)C(C)=C1C3(C)C)[C@]1(OC(C)=O)COC1C[C@@H]2O (stereo partly specified)	30 nM		inactive	275%	
CC(=O)O[C@H]1C(=O)[C@@]2(C)[C@H]([C@H](OC(=O)c3ccccc3)[C@]3(O)C[C@H](OC(=O)[C@H](O)[C@@H](NC(=O)c4ccccc4)c4ccccc4)C(C)=C1C3(C)C)[C@]1(OC(C)=O)CO[C@@H]1C[C@@H]2O [PACLITAXEL]					T/C [5]: 197%; T/C [6]: 275%; T/C [7]: 275%; T/C [8]: 275%; T/C [9]: 270%; T/C [10]: 276%; T/C [11]: 262%; T/C [12]: 262%; T/C [13]: 262%
CCOC(=O)O[C@@H](C(=O)O[C@H]1C[C@@]2(O)[C@@H](OC(=O)c3ccccc3)C3[C@]4(OC(C)=O)COC4C[C@H](O)[C@@]3(C)C(=O)[C@H](OC(C)=O)C(=C1C)C2(C)C)[C@@H](NC(=O)c1ccccc1)c1ccccc1 (stereo partly specified)	30 nM			>475%	Activity [14]: Active
CC(=O)O[C@H]1C(=O)[C@@]2(C)C([C@H](OC(=O)c3ccccc3)[C@]3(O)C[C@H](OC(=O)[C@H](OC(=O)Oc4cccc(N(C)C)c4)[C@@H](NC(=O)c4ccccc4)c4ccccc4)C(C)=C1C3(C)C)[C@]1(OC(C)=O)COC1C[C@@H]2O (stereo partly specified)	16 nM	226%	inactive		
CC(=O)O[C@H]1C(=O)[C@@]2(C)C([C@H](OC(=O)c3ccccc3)[C@]3(O)C[C@H](OC(=O)[C@H](OC(=O)OC(C)C)[C@@H](NC(=O)c4ccccc4)c4ccccc4)C(C)=C1C3(C)C)[C@]1(OC(C)=O)COC1C[C@@H]2O (stereo partly specified)	> 80 nM	247%	inactive		
CC(=O)O[C@H]1C(=O)[C@@]2(C)C([C@H](OC(=O)c3ccccc3)[C@]3(O)C[C@H](OC(=O)[C@H](OC(=O)Oc4ccccc4)[C@@H](NC(=O)c4ccccc4)c4ccccc4)C(C)=C1C3(C)C)[C@]1(OC(C)=O)COC1C[C@@H]2O (stereo partly specified)	7 nM	203%	inactive		
COC(=O)O[C@@H](C(=O)O[C@H]1C[C@@]2(O)[C@@H](OC(=O)c3ccccc3)C3[C@]4(OC(C)=O)COC4C[C@H](O)[C@@]3(C)C(=O)[C@H](OC(C)=O)C(=C1C)C2(C)C)[C@@H](NC(=O)c1ccccc1)c1ccccc1 (stereo partly specified)	> 80 nM	162%			Activity [14]: Active
